Results as given in US12560054B2, “Use of carboxylates for carbon sequestration, improved oil recovery, and hydrogen storage and reproduction” (Board of Regents, The University of Texas System, priority 2021, dated 2026).
Read-outs that look alike come from different tables or passages of the source.

Key:
[1] = pH measurements before and after the contact angle experiments with calcite; format: physicochemical; conditions: room temperature; for pH After: after contact angle experiment with calcite; for pH Before: before contact angle experiment
Description: RB was made first by adding salts and adjusting the total mass of the solution to 1 kg with deionized water. […] For solutions with HCl, HCl was added to solutions of formate and acetate at room temperature while stirring slowly. […] After aqueous solutions were prepared and degassed, they were placed in an oven at the desired reservoir temperature (347 K for calcite and 337 for Eagle Ford shale).

[2] = 347 K
Description: Contact Angle Experiments. Contact angle experiments were performed on calcite surfaces and Eagle Ford shale plates. […] After cutting the plates in the appropriate sizes, they were polished with a diamond grinder to result in a smooth surface. […] The pH values of the chemical solutions were measured before and after the experiment. […] The final pH level was adjusted to correspond to the glycine solution at the same concentration. […] Then, to start the experiment, the rock pieces were immersed in the solution and then oil droplets were placed at the bottom of the rock pieces. The solution chambers were put in the oven for equilibration. Then, images of the oil droplets were taken. A new oil droplet was placed after a certain number of days and the images were taken after equilibration. Contact angles reported in figures are the equilibrium contact angles. For example, if data is reported from day 7, that data is the final equilibrated contact angle of the droplet placed on day 7. Contact angles were measured from photos with the on-screen protractor software.

[3] = 337 K
Description: Contact Angle Experiments. Contact angle experiments were performed on calcite surfaces and Eagle Ford shale plates. […] After cutting the plates in the appropriate sizes, they were polished with a diamond grinder to result in a smooth surface.
RB was made first by adding salts and adjusting the total mass of the solution to 1 kg with deionized water. […] The final pH level was adjusted to correspond to the glycine solution at the same concentration. […]
After being aged in heavy oil for at least 3 weeks, the calcite or shale pieces were retrieved, and the excess oil was removed from the surfaces carefully. Then, to start the experiment, the rock pieces were immersed in the solution and then oil droplets were placed at the bottom of the rock pieces. The solution chambers were put in the oven for equilibration. Then, images of the oil droplets were taken. A new oil droplet was placed after a certain number of days and the images were taken after equilibration. Contact angles reported in figures are the equilibrium contact angles. For example, if data is reported from day 7, that data is the final equilibrated contact angle of the droplet placed on day 7. Contact angles were measured from photos with the on-screen protractor software.
A similar procedure was followed for another set of experiments with Eagle Ford shale plates.

[4] = room temperature; cited from earlier work
[5] = with RB at reservoir and room temperatures
[6] = near-saturated 45% (% w/w) sodium formate in water, 20 °C; cited from earlier work
[7] = Viscosity and density of formate solutions in NaCl+CaCl2 brine; format: physicochemical; conditions: solutions in the brine at 25, 50 and 75 °C over a wide range of shear rates
Description: Viscosity Measurements. […] A double wall couette geometry was used for the measurement. The viscosity measurements were taken at 25, 50, and 75° C. The sodium formate solutions were prepared and allowed to equilibrate in an oven set at the target temperature.
For viscosity measurements at 50 and 75° C., the temperature of the holding cup was raised to the target temperature using the circulating bath before putting the solution into the rheometer's sample holding cup.

SMILES | pH After ([1]; 0.5 wt % in RB) | pH Before ([1]; 0.5 wt % in RB) | pH After ([1]; 1 wt % in RB) | pH Before ([1]; 1 wt % in RB) | pH After ([1]; 2.5 wt % in RB) | pH Before ([1]; 2.5 wt % in RB) | pH After ([1]; 5 wt % in RB) | pH Before ([1]; 5 wt % in RB) | contact angle on calcite ([2]; 2.5 and 5 wt % in RB, reached over time) [°] | final contact angle on Eagle Ford shale plates ([3]; 5 wt % in RB without HCl) | isoelectric point (pI) [4] | aqueous stability [5] | contact angle reduction on calcite ([2]; without HCl, in RB) | final contact angle on Eagle Ford shale plates ([3]; 5 wt % in RB with HCl) | reported viscosity [6] [cp] | rheological behavior [7] | contact angle on calcite ([2]; with HCl (pH adjusted to glycine level), in RB) | contact angle on calcite ([2]; without HCl, 0.5-5 wt % in RB)
NCC(=O)O [glycine, reference compound] | 7.94 | 6.68 | 7.73 | 6.42 | 7.53 | 6.24 | 7.62 | 6.10 | ~40 | 60 ° | 5.97 | – | – | – | – | – | – | –
CC(=O)[O-].[Na+] [acetate, Sodium Acetate] | 8.04 | 8.15 | 7.89 | 8.31 | 7.87 | 8.44 | 7.85 | 8.64 | – | about 80 ° | – | confirmed | did not significantly reduce the contact angle | approximately 60 ° | – | – | – | –
O=C[O-].[Na+] [sodium formate] | – | – | – | – | – | – | – | – | – | – | – | – | – | – | 9.5 | Newtonian behavior | – | –
O=CO [formate] | 8.26 | 8.07 | 8.22 | 7.96 | 8.05 | 8.12 | 7.96 | 8.11 | – | about 80 ° | – | confirmed | – | approximately 60 ° | – | – | 50-60 ° | approximately 80 °
